Measurements from patent publication EP4722219A1 (Gan & Lee Pharmaceuticals Co., Ltd., priority 2023, dated 2024).

Tests used:
Type in all cases: cell-based
SMARCA2 [1] = biological target: T1, SMARCA2 (Homo sapiens, UniProt P51531); test: SMARCA2 degradation in HeLa cells (Western blot); parameters: endogenous in cells; settings: 4 hours
Description: (§1) Test Example 10 Degradation rate (%) of SMARCA2/4 by the PROTAC compounds of the present invention in HeLa cells and SW1573 cells
HeLa cells were seeded at 1.2 x 10^5 cells/well in a 6-well plate. 2 mL of EMEM medium supplemented with 10% FBS was added to each well and the culture dish was incubated overnight to allow the cells to adhere. The next day, 1 µL of 160 µM and 1 µL of 2 µM compound were added to the corresponding wells, resulting in final compound concentrations of 80 nM and 1 nM, respectively, and a final DMSO concentration of 0.05%. The cells were returned to the incubator and incubated for another 4 hours.
(§2) After 4 hours, cells were harvested, the culture medium was aspirated, and the cells were rinsed once with 1 mL/well PBS. The PBS was aspirated, and 40 µL/well of RIPA lysis buffer containing protease inhibitors was added. After lysis and centrifugation, total protein extracts were obtained, and protein concentration in the extracts was determined by BCA assay. Protein electrophoresis was performed by SDS-PAGE, followed by constant voltage electrophoresis at 100 V for 60 minutes and the protein was then transferred to a PVDF membrane. The PVDF membrane was blocked in 5% skim milk powder for 1 hour at room temperature. Primary antibodies (SMARCA2: CST#11966S, SMARCA4: CST#49360S, GAPDH: CST#5174S) were added and incubated overnight at 4°C. After washing the membrane, secondary antibodies were added and incubated at room temperature for 1 hour (protected from the light). After washing, the membrane was exposed using an Odyssey luminometer. Grayscale analysis of bands was performed using Image Studio software.
(§3) The degradation rate (%) of SMARCA2/4 by the PROTAC compounds of the present invention in HeLa cells and SW1573 cells is shown in Table 10. Table 10 Degradation rate of SMARCA2/4 by PROTAC compounds of the present invention in HeLa cells and SW1573 cells (%)

SMARCA4 [2] = biological target: T2, SMARCA4 (Homo sapiens, UniProt P51532); test: SMARCA4 degradation in HeLa cells (Western blot); parameters: endogenous in cells; settings: 4 hours; for Dmax at 0.001 µM / Dmax at 0.08 µM: read-out: Degradation rate of SMARCA4 in HeLa cells (%)
T2 sequence (P51532 whole entry): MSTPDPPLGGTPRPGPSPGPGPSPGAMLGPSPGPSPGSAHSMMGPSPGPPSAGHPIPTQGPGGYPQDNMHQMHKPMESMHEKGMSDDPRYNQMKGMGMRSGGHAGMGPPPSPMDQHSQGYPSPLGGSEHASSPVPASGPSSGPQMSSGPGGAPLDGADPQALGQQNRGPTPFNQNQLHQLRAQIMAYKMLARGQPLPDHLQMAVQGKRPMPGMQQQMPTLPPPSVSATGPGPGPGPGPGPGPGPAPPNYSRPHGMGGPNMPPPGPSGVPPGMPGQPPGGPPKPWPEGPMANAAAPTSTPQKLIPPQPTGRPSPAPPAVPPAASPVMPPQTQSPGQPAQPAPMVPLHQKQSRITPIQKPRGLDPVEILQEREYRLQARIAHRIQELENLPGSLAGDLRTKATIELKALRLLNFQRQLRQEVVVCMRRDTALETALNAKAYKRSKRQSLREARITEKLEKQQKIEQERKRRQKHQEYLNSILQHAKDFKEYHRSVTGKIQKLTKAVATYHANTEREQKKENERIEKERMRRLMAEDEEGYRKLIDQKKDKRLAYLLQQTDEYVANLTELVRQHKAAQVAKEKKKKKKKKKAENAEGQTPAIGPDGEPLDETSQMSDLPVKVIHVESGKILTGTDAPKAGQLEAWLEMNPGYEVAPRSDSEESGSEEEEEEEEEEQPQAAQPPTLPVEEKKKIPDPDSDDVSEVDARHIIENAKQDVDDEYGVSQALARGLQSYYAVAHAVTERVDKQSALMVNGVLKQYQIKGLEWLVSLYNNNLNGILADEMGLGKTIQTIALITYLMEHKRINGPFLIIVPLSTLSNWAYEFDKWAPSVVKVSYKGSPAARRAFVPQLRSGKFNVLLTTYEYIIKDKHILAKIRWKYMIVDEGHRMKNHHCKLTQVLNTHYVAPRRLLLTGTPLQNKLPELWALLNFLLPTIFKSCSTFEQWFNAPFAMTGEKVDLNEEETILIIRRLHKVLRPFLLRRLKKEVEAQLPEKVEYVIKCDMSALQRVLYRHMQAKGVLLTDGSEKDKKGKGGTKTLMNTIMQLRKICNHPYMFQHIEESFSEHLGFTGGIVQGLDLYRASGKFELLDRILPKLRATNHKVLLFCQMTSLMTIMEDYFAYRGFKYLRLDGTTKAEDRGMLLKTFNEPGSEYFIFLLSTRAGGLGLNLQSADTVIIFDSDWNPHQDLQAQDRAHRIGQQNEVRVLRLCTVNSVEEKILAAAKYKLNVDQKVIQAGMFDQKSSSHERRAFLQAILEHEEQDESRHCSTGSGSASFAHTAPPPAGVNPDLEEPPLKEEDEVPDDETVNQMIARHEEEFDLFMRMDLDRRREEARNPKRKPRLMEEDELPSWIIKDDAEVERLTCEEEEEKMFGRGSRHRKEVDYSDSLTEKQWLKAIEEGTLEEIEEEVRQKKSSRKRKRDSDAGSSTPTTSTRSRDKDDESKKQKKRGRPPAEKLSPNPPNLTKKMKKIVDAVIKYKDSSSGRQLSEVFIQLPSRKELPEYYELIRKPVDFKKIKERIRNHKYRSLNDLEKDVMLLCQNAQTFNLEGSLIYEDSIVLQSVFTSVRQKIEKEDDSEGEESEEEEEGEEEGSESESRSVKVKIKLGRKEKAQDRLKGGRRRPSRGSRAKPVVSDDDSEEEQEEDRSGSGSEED
Description: HeLa cells were seeded at 1.2 x 10^5 cells/well in a 6-well plate. 2 mL of EMEM medium supplemented with 10% FBS was added to each well and the culture dish was incubated overnight to allow the cells to adhere. […] The cells were returned to the incubator and incubated for another 4 hours.
as §2, with “Primary antibodies (SMARCA2: CST#11966S, SMARCA4: CST#49360S, GAPDH: CST#5174S) were added and incubated overnight at 4°C.” left out
as §3

SMARCA4 [3] = biological target: T2, SMARCA4; test: SMARCA4 degradation in SW1573 cells (Western blot); parameters: endogenous in cells; host or cells: SW1573; settings: 24 hours; for Dmax at 0.001 µM / Dmax at 0.08 µM: read-out: Degradation rate of SMARCA4 in SW1573 cells (%)
Description: SW1573 cells were seeded at 2x10^5Cells/well in a 6-well plate. 2 mL of EMEM medium supplemented with 10% FBS was added to each well and was incubated overnight to allow cell attachment. […] The cells were returned to the incubator and incubated for another 24 hours.
as §2, with “After 24” for “After 4”, “the” for “the culture”, “temperature. […]” for “temperature. Primary antibodies (SMARCA2: CST#11966S, SMARCA4: CST#49360S, GAPDH: CST#5174S) were added and incubated overnight at 4°C.”
as §3

SMARCA2 [4] = biological target: T1, SMARCA2; test: SMARCA2 degradation in SW1573 cells (Western blot); parameters: endogenous in cells; host or cells: SW1573; settings: 24 hours
Description: as §1
SW1573 cells were seeded at 2x10^5Cells/well in a 6-well plate. 2 mL of EMEM medium supplemented with 10% FBS was added to each well and was incubated overnight to allow cell attachment. The next day, 1 µL of 160 µM and 1 µL of 2 µM compound were added to the corresponding wells for treatment, resulting in final compound concentrations of 80 nM and 1 nM, respectively, and a final DMSO concentration of 0.05%. The cells were returned to the incubator and incubated for another 24 hours.
as §2, with “After 24” for “After 4”, “the” for “the culture”
as §3

T1 sequence (P51531 whole entry): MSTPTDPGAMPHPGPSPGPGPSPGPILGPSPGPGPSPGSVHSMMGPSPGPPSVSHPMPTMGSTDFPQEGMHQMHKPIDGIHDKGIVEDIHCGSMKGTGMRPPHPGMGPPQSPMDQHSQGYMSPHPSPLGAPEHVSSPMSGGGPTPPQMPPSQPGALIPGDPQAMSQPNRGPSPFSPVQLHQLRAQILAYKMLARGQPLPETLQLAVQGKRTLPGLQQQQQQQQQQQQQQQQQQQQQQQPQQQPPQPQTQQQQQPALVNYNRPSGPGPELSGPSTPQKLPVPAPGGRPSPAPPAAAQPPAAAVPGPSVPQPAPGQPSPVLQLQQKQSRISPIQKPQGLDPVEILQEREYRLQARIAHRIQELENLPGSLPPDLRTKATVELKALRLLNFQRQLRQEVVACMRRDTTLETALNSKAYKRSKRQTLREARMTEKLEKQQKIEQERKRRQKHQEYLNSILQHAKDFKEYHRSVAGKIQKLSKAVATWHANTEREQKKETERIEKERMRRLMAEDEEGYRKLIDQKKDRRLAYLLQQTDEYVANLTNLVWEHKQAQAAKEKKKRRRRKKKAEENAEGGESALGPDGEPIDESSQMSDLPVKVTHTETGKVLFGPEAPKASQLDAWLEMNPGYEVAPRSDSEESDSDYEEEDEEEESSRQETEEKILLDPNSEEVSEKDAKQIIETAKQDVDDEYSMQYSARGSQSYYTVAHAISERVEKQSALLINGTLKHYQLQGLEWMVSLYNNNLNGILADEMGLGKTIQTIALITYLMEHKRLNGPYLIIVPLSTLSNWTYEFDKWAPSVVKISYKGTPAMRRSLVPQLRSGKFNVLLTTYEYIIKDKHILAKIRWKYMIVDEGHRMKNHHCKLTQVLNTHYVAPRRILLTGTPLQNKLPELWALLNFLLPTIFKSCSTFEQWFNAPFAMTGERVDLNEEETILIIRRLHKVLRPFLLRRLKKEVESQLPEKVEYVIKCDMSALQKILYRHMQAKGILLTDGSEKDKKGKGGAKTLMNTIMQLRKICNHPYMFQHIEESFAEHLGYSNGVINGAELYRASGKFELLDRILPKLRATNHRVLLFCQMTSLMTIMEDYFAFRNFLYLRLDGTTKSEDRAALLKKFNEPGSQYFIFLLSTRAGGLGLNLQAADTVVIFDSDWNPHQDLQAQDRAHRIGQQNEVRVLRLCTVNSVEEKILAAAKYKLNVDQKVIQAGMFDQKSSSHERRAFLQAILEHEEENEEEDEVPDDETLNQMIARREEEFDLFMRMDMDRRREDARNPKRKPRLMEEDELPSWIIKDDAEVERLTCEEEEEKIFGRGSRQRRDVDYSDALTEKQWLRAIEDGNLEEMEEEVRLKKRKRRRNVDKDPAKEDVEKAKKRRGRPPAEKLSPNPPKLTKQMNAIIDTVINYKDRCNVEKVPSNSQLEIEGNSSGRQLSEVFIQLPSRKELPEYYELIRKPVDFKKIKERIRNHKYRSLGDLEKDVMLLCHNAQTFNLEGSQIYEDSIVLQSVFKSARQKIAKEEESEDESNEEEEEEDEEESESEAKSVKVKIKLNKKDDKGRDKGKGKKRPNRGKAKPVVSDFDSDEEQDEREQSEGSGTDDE

| Structure (SMILES) | Degradation rate of SMARCA2 in HeLa cells (%) (SMARCA2 [1]; 1 nM) | Degradation rate of SMARCA2 in HeLa cells (%) (SMARCA2 [1]; 80 nM) | Degradation rate of SMARCA4 in HeLa cells (%) (SMARCA4 [2]; 1 nM) | Degradation rate of SMARCA4 in HeLa cells (%) (SMARCA4 [2]; 80 nM) | Degradation rate of SMARCA4 in SW1573 cells (%) (SMARCA4 [3]; 1 nM) | Degradation rate of SMARCA4 in SW1573 cells (%) (SMARCA4 [3]; 80 nM) | Degradation rate of SMARCA2 in SW1573 cells (%) (SMARCA2 [4]; 1 nM) | Degradation rate of SMARCA2 in SW1573 cells (%) (SMARCA2 [4]; 80 nM) | Dmax at 0.001 µM (SMARCA4 [2]; 1 nM) [%] | Dmax at 0.08 µM (SMARCA4 [2]; 80 nM) [%] | Dmax at 0.001 µM (SMARCA4 [3]; 1 nM) [%] | Dmax at 0.08 µM (SMARCA4 [3]; 80 nM) [%] |
| --- | --- | --- | --- | --- | --- | --- | --- | --- | --- | --- | --- | --- |
| Nc1nnc(-c2ccccc2O)cc1C#CC1CCC2(CC1)CC(N1CCN3c4ccc(C(=O)N[C@H]5CCC(=O)NC5=O)cc4OC[C@@H]3C1)C2 (stereo partly shown) [SM-P-20] | 23 | 86 | 32 | 65 | -56 | 22 | 12 | 76 | – | – | – | – |
| Nc1nnc(-c2ccccc2O)cc1C#CC1CCC2(CC1)CC(N1CCC3(CCc4cc(C(=O)N[C@H]5CCC(=O)NC5=O)c(F)cc4O3)CC1)C2 (stereo partly shown) [SM-P-7] | 7 | 68 | – | – | – | – | 1 | 66 | -52 | 28 | -29 | 39 |
| Nc1nnc(-c2ccccc2O)cc1C#CC1CCC2(CC1)CC(N1CC3(CCc4cc(F)c(C(=O)N[C@H]5CCC(=O)NC5=O)cc4O3)C1)C2 (stereo partly shown) [SM-P-9] | 11 | 15 | – | – | – | – | 3 | 7 | -7 | 21 | -8 | -5 |
| Nc1nnc(-c2ccccc2O)cc1C#CC1CCC2(CC1)CC(N1CCN3c4ccc(C(=O)N[C@H]5CCC(=O)NC5=O)cc4OCC[C@H]3C1)C2 (stereo partly drawn) [SM-P-13, (S)-3-(7-((3-amino-6-(2-hydroxyphenyl)pyridazin-4-yl)ethynyl)spiro[3.5]nonan-2-yl)-N-((S)-2,6-dioxopyrimidin-3-yl)-2,3,4,4a,5,6-hexahydro-1H-benzo[b]pyrazino[1,2-d] [1,4]oxythiophene-9-carboxamide] | 38 | 96 | 19 | 65 | -11 | 32 | 32 | 88 | – | – | – | – |
| Nc1nnc(-c2ccccc2O)cc1C#CC1CCC2(CC1)CC(N1CCC3(CCc4ccc(NC5CCC(=O)NC5=O)cc4O3)CC1)C2 (stereo not shown) [SM-P-24, 3-((1'-(7-((3-amino-6-(2-hydroxyphenyl)pyridazin-4-yl)ethynyl)spiro[3.5]nonan-2-yl)spiro[chromane-2,4'-piperidin]-7-yl)amino)piperidine-2,6-dione] | -10 | 29 | – | – | – | – | -29 | -75 | -34 | -1 | 12 | 11 |
| Nc1nnc(-c2ccccc2O)cc1C#CC1CCC2(CC1)CC(N1CCC3(CC1)Cc1ccc(NC4CCC(=O)NC4=O)cc1O3)C2 (stereo not shown) [SM-P-25, 3-((1'-(7-((3-amino-6-(2-hydroxyphenyl)pyridazin-4-yl)ethynyl)spiro[3.5]nonan-2-yl)-3H-spiro[benzofuran-2,4'-piperidin]-6-yl)amino)piperidine-2,6-dione] | 10 | 53 | – | – | – | – | 11 | 50 | 6 | 42 | -21 | -10 |
| Nc1nnc(-c2ccccc2O)cc1C#CC1CCC2(CC1)CC(N1CCC3(CC1)COc1c3ccc(F)c1C(=O)N[C@H]1CCC(=O)NC1=O)C2 (stereo partly shown) [SM-P-19] | 14 | 59 | -11 | 24 | 1 | 0 | 11 | 31 | – | – | – | – |
| Cn1c(=O)n(C2CCC(=O)NC2=O)c2cc3c(cc21)OC1(CC3)CCN(C2CC3(CCC(C#Cc4cc(-c5ccccc5O)nnc4N)CC3)C2)CC1 (stereo not shown) [SM-P-1, 3-(1'-(7-((3-amino-6-(2-hydroxyphenyl)pyridazin-4-yl)ethynyl)spiro[3.5]nonan-2-yl)-3-methyl-2-oxo-2,3,7,8-tetrahydro-1H-spiro[chromeno[6,7-d]imidazole-6,4'-piperidin]-1-yl)piperidine-2,6-dione] | 90 | 100 | – | – | – | – | 72 | 96 | 85 | 98 | 43 | 97 |
